Results reported in US9249147B2, “Tyrosine kinase inhibitors” (CHEMBRIDGE CORPORATION, priority 2008, dated 2016).
Converted amounts (≈) assume the structure as drawn. Where two headings read alike, the source gives them in different places. Values belong to the compound of their own block, whether it stands above or below them.

Experiments:
[1] = Aqueous Solubility (PBS, pH 7.4); assay type: physicochemical; details: pH 7.4, 2.0E−04 M; for solubility: pH 7.4, PBS
[2] = Caco-2 (TC7) A-B Permeability test (pH 6.5/7.4); details: human, A-B Permeability (TC7, pH 6.5/7.4), test concentration 1.0E−05 M
hERG = hERG (Homo sapiens, UniProt Q12809); test: hERG Inhibition (Table 6E); assay type: cell-based; set-up: expressed in transfected cells; unit not given here
Procedure: Compound (II) was initially tested at 1 μM concentration using a standard patch clamp protocol (Cerep ADMET Study 13170). The hERG channel was expressed in a human embryonic kidney (HEK293) cell line that lacks endogenous hERG channels. […] We have retested compound (II) in hERG assay in a range of lower concentrations to estimate IC50 of hERG inhibition more precisely (Qpatch 16 automated whole-cell patch clamp protocol in CHO-K1 cell line stably expressing hERG, Cerep hERG Study 13292). […] This kind of potency in hERG inhibition should not represent a significant clinical problem since the high degree of hERG inhibition would occur only at the compound concentrations above the expected therapeutic levels.

IGF1R = biological target: T1, IGF1R (Homo sapiens, UniProt P08069); test: IGF1R kinase assay; assay type: biochemical; details: Table 1; read-out: IGF1R IC50
T1 construct: 6×His- or GST-tagged kinase domain fragments of the corresponding RTKs expressed in baculovirus system; host or cells: baculovirus system
Procedure: (§1) To determine inhibition of several tyrosine kinases, such as IGF1R, InsR, Alk, TrkA and Jak2, kinase assays are conducted using either Kinase-Glo (Promega) or AlphaScreen (PerkinElmer) kinase assay platforms. The Kinase-Glo Luminescent Kinase Assay is a homogeneous method for measuring kinase activity by determining the amount of ATP remaining after a kinase reaction. The luminescent signal is proportional to the amount of ATP and inversely proportional to the amount of kinase activity. Tyrosine kinase PT66 AlphaScreen Assay is a high-sensitivity homogeneous, anti-phosphotyrosine antibody-mediated luminescent proximity method measuring incorporation of phosphate in synthetic poly(Glu-Tyr) substrate. The kinase preparations used consist of purified recombinant, 6×His- or GST-tagged kinase domain fragments of the corresponding RTKs expressed in baculovirus system.
(§2) Compounds with a range of concentrations 40 μM, 20 μM, 10 μM, 5 μM, 2.5 μM, 1.25 μM, 0.625 μM, 0.3125 μM, 0.15625 μM and 0.078125 μM were incubated with NPM-ALK, which was produced in insect cells as a 6×HIS-tagged fusion protein and purified using nickel-charged resin chromatography, for 30 minutes at RT in the presence of 10 μM ATP and 7.0 ng biotinylated poly-GT. A 1:1 mixture of […] and donor beads was then added to the reaction and incubated for an additional 60 minutes at RT. The assay was conducted on a MultiPROBE liquid handling workstation (PerkinElmer) in a 384-well plate format with a total reaction volume of 40 μL per well. Working stocks of all compounds were dissolved in 100% DMSO and serial dilutions of the compounds were performed using kinase buffer (50 mM Tris-HCl (pH 7.5), 5 mM MgCl2, 5 mM MnCl2, 2 mM DTT (added freshly before use), 0.01% Tween-20) containing 5% DMSO. […] Data were collected as optical readings at 520-680 nm on a Fusion™ microplate analyzer (PerkinElmer), and IC50 and Ki values calculated using PRISM3.0 software (GraphPad Software, Inc., San Diego, Calif.). The same assay was also used with minor modifications to assess the IC50 and Ki values for selected compounds against five other tyrosine kinases (IRK, IGF1R, Flt3, Abl, Src), all of which were purchased from commercial vendors. PolyGT-Biotin was bought from CIS Biointernational Cat. #61GT0BLD; ATP—from Sigma Cat. # A7699; sodium orthovanadate—from Sigma Cat. #S-6508; phosphotyrosine (PT66) assay kit from PerkinElmer Cat. #6760602M; automated workstation tips (20 μL): PerkinElmer Cat. #6000657; and OptiPlate-384 (white)—from PerkinElmer Cat. #6007299.

IRK = biological target: T2, IRK (Homo sapiens, UniProt P06213); test: IRK (insulin receptor kinase) assay; assay type: biochemical; details: Table 1; read-out: IRK IC50
T2 construct: 6×His- or GST-tagged kinase domain fragments of the corresponding RTKs expressed in baculovirus system; host or cells: baculovirus system
Procedure: as §1, §2

ALK = ALK (Homo sapiens, UniProt Q9UM73); test: ALK kinase assay (Kinase-Glo / AlphaScreen, purified NPM-ALK); assay type: biochemical; set-up: fused to the complete intracytoplasmic portion of ALK containing the functional tyrosine kinase domain; 6xHis; made in house; host or cells: insect cells; the other entry of the earlier key: NPM1 (P06748, Nucleophosmin); details: Table 1; read-out: ALK IC50
[3] = Tables 9C, 9D, read-out: Solubility Mean
[4] = individual data, read-out: Solubility 1st/2nd
[5] = Caco-2, pH 6.5, Mean Permeability, mean of n = 2
[6] = Caco-2, pH 6.5, Mean Recovery, mean of n = 2
[7] = Caco-2, pH 6.5, Permeability 1st, 1st replicate
[8] = Caco-2, pH 6.5, Permeability 2nd, 2nd replicate
[9] = Caco-2, pH 6.5, Present Recovery 1st, 1st replicate
[10] = Caco-2, pH 6.5, Present Recovery 2nd, 2nd replicate

Chain of ALK (Q9UM73 with tags, fused parts or gaps): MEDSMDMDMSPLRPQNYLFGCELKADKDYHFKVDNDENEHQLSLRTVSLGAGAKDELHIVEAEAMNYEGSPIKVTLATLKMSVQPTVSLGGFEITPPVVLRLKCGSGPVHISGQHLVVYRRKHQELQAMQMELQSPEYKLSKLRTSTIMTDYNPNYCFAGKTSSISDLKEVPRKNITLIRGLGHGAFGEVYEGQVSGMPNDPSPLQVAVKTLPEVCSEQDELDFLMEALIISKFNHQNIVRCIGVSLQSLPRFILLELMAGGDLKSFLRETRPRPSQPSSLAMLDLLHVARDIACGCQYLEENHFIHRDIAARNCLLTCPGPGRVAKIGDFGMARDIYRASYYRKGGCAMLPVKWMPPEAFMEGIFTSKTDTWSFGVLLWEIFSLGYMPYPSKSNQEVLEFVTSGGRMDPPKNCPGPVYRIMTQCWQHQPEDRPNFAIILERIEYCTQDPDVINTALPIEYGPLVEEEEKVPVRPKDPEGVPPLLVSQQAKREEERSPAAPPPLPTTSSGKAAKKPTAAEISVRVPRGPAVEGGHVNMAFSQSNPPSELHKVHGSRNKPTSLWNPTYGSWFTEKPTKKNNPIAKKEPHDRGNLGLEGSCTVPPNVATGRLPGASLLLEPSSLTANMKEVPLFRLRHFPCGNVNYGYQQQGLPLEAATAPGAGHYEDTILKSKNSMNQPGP
T1 sequence (P08069 999-1274 limits assumed): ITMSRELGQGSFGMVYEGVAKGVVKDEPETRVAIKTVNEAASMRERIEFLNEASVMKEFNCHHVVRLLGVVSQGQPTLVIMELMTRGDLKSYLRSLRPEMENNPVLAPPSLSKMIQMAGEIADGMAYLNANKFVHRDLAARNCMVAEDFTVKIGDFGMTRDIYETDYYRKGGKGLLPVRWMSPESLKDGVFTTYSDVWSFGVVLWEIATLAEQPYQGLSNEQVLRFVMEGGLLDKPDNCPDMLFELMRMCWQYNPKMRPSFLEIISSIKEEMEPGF
T2 sequence (P06213 1023-1298 limits assumed): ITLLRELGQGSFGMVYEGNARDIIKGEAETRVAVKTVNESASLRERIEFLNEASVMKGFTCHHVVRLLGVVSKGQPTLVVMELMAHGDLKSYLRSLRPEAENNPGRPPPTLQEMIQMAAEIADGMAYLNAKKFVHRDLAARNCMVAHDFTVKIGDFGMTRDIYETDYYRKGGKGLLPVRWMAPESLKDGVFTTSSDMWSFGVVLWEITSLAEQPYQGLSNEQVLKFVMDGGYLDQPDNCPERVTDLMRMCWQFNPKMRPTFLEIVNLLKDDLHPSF
Chain of hERG (Q12809 whole entry): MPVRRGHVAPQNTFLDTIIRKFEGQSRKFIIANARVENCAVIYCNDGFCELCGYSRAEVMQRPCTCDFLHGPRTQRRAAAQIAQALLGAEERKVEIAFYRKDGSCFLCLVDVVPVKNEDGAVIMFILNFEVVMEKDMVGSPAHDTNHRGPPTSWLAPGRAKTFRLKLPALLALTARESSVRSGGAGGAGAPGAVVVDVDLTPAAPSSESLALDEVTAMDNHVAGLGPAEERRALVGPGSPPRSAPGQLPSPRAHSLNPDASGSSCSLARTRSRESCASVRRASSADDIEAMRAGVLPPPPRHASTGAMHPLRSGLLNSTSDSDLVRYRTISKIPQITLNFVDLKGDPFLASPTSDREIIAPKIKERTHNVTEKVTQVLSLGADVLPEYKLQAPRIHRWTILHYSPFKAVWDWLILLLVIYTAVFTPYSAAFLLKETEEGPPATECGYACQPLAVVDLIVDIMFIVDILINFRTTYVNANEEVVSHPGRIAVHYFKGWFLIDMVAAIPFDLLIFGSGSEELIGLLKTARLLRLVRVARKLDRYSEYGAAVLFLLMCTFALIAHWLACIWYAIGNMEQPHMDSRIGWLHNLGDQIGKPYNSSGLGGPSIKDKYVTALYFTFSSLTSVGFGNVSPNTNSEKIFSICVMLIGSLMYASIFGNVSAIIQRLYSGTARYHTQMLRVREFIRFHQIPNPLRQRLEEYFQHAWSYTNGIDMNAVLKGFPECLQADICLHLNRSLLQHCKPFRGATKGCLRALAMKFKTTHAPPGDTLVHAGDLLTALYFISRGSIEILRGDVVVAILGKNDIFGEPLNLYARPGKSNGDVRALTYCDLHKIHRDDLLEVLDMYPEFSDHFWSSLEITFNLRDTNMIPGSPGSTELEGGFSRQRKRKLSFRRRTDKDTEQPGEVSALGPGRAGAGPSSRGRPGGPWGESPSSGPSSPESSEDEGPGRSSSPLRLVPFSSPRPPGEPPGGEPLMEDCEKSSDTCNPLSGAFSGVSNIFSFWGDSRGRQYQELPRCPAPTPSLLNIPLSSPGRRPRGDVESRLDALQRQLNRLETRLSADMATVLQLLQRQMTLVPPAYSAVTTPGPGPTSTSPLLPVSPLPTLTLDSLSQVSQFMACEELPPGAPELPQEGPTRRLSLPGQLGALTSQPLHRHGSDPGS

Solubility 1st/2nd ([1]; individual data): 109.58 μm
solubility [1, 3]: 108 µM (≈ 57.5 µg/mL)
solubility [1, 4]: 107 µM (≈ 56.7 µg/mL)
Structure (SMILES): CC(=O)N1CCN(c2ccc(OCC3COC(Cn4ccnc4)(c4ccc(Cl)cc4Cl)O3)cc2)CC1 (stereo not drawn) [Ketoconazole, ketoconazole, reference compound]

Papp A→B at 10 µM [2, 5]: 0.6 ×10⁻⁶ cm/s
recovery at 10 µM [2, 6]: 95%
Papp A→B at 10 µM [2, 7]: 0.58 ×10⁻⁶ cm/s
Papp A→B at 10 µM [2, 8]: 0.64 ×10⁻⁶ cm/s
recovery at 10 µM [2, 9]: 82%
recovery at 10 µM [2, 10]: 109%
Structure (SMILES): CNC(=C[N+](=O)[O-])NCCSCc1ccc(CN(C)C)o1 [Ranitidine]

Structure (SMILES): COc1cc2c(c(OC)c1OC)-c1ccc(OC)c(=O)cc1[C@@H](NC(C)=O)CC2 [Colchicine]
recovery at 10 µM [2, 6]: 97%
Papp A→B at 10 µM [2, 7]: 0.9 ×10⁻⁶ cm/s
Papp A→B at 10 µM [2, 8]: 0.05 ×10⁻⁶ cm/s
recovery at 10 µM [2, 9]: 99%
recovery at 10 µM [2, 10]: 65%

Structure (SMILES): C[C@@H](Cc1cc(F)cc(F)c1F)Nc1cc[nH]c(=O)c1-c1nc2cc3c(cc2[nH]1)CN(CCN(C)C)C3=O [drawing 367]
hERG Inhibition (hERG; 25): 6.60
hERG Inhibition (hERG; 100): 10.20
hERG Inhibition (hERG; column head 500): 13.10

Structure (SMILES): Cc1ccc(F)cc1C[C@H](C)Nc1cc[nH]c(=O)c1-c1nc2cc3c(cc2[nH]1)C(=O)N(CCN1CCCC1)C3 [drawing 364]
hERG Inhibition (hERG; 25): 22.5
hERG Inhibition (hERG; 100): 28
hERG Inhibition (hERG; 1000): 50.4
hERG Inhibition (hERG; column head 500): 38.5

Structure (SMILES): Cc1ccc(F)cc1C[C@H](C)Nc1cc[nH]c(=O)c1-c1nc2cc3c(cc2[nH]1)CN(CCN(C)C)C3=O [drawing 365]
hERG Inhibition (hERG; 25): 5.8
hERG Inhibition (hERG; 100): 8.8
hERG Inhibition (hERG; 1000): 6.8
hERG Inhibition (hERG; column head 500): 11.1
hERG Inhibition (hERG; column head 3000): 27.1
hERG Inhibition (hERG; column head 5000): 50.0

Solubility 1st/2nd ([1]; individual data): 86.44 μm
solubility [1, 3]: 87 µM (≈ 21.9 µg/mL)
solubility [1, 4]: 87.7 µM (≈ 22.1 µg/mL)
Structure (SMILES): O=C1NC(=O)C(c2ccccc2)(c2ccccc2)N1 [Phenytoin]

Papp A→B at 10 µM [2, 5]: 6 ×10⁻⁶ cm/s
recovery at 10 µM [2, 6]: 90%
Papp A→B at 10 µM [2, 7]: 5.8 ×10⁻⁶ cm/s
Papp A→B at 10 µM [2, 8]: 6.21 ×10⁻⁶ cm/s
recovery at 10 µM [2, 9]: 91%
recovery at 10 µM [2, 10]: 88%
Structure (SMILES): CC(CCc1ccccc1)NCC(O)c1ccc(O)c(C(N)=O)c1 (stereo not drawn) [Labetalol]

Solubility 1st/2nd ([1]; individual data): 61.29 μm
solubility [1, 3]: 61.9 µM (≈ 23.3 µg/mL)
solubility [1, 4]: 62.5 µM (≈ 23.5 µg/mL)
Structure (SMILES): O=C(CCCN1CCC(O)(c2ccc(Cl)cc2)CC1)c1ccc(F)cc1 [Haloperidol]

IC50 (IGF1R): 0.25 to 1 µM
IC50 (IRK): 0.1 to 0.25 µM
IC50 (ALK): 0.01 to 0.1 µM
Structure (SMILES): Cc1ccsc1C[C@H](C)Nc1cc[nH]c(=O)c1-c1nc2cc3c(cc2[nH]1)CN(CCN1CCC[C@H]1C)C3=O

IC50 (IGF1R): > 1 µM
IC50 (IRK): 0.25 to 1 µM
IC50 (ALK): 0.01 to 0.1 µM
Structure (SMILES): Cc1cc(F)ccc1C[C@H](C)Nc1cc[nH]c(=O)c1-c1nc2cc3c(cc2[nH]1)C(=O)N(CCN1CCCC1)C3

IC50 (IGF1R): 0.25 to 1 µM
IC50 (IRK): 0.1 to 0.25 µM
IC50 (ALK): < 0.01 µM
Structure (SMILES): C[C@@H](Cc1cc(F)ccc1Br)Nc1cc[nH]c(=O)c1-c1nc2cc3c(cc2[nH]1)CN(CCN1CCCC1)C3=O [drawing 330]

IC50 (IGF1R): > 1 µM
IC50 (IRK): 0.1 to 0.25 µM
IC50 (ALK): 0.25 to 1 µM
Structure (SMILES): Cc1ccc(Cl)cc1C[C@H](C)Nc1cc[nH]c(=O)c1-c1nc2cc3c(cc2[nH]1)CN(CCN1CCCC1)C3=O

IC50 (IGF1R): 0.25 to 1 µM
IC50 (IRK): 0.1 to 0.25 µM
IC50 (ALK): 0.1 to 0.25 µM
Structure (SMILES): C[C@@H](Cc1cccs1)Nc1cc[nH]c(=O)c1-c1nc2cc3c(cc2[nH]1)C(=O)N(CCCN1CCCC1)C3 [drawing 259]

IC50 (IGF1R): 0.1 to 0.25 µM
IC50 (IRK): > 1 µM
IC50 (ALK): 0.1 to 0.25 µM
Structure (SMILES): CC(Cc1ccccc1F)Nc1cc[nH]c(=O)c1-c1nc2cc3c(cc2[nH]1)C(=O)N(CCCN1CCCC1)C3 (stereo not drawn)

IC50 (IGF1R): 0.1 to 0.25 µM
IC50 (IRK): 0.25 to 1 µM
IC50 (ALK): 0.01 to 0.1 µM
Structure (SMILES): COc1ccc(F)cc1C[C@H](C)Nc1cc[nH]c(=O)c1-c1nc2cc3c(cc2[nH]1)CN(CCN1CCCC1)C3=O

Structure (SMILES): C[C@@H](Cc1cc(F)cc(F)c1F)Nc1cc[nH]c(=O)c1-c1nc2cc3c(cc2[nH]1)CN(CCN1CCCC1)C3=O [drawing 366]
hERG Inhibition (hERG; 25): 6.00
hERG Inhibition (hERG; 100): 9.7
hERG Inhibition (hERG; 1000): 7.30
hERG Inhibition (hERG; column head 500): 7.10
hERG Inhibition (hERG; column head 3000): 33.20
hERG Inhibition (hERG; column head 5000): 57.80

IC50 (IGF1R): > 1 µM
IC50 (IRK): 0.1 to 0.25 µM
IC50 (ALK): 0.25 to 1 µM
Structure (SMILES): C[C@@H](Cc1ccccc1Cl)Nc1cc[nH]c(=O)c1-c1nc2cc3c(cc2[nH]1)CN(CCN1CCCC1)C3=O
